Molecular target: Cytochrome P450 3A4 (Homo sapiens, UniProt P08684)
Experiment: Inhibition of cytochrome P450 3A4

Chain of Cytochrome P450 3A4 (P08684 whole entry): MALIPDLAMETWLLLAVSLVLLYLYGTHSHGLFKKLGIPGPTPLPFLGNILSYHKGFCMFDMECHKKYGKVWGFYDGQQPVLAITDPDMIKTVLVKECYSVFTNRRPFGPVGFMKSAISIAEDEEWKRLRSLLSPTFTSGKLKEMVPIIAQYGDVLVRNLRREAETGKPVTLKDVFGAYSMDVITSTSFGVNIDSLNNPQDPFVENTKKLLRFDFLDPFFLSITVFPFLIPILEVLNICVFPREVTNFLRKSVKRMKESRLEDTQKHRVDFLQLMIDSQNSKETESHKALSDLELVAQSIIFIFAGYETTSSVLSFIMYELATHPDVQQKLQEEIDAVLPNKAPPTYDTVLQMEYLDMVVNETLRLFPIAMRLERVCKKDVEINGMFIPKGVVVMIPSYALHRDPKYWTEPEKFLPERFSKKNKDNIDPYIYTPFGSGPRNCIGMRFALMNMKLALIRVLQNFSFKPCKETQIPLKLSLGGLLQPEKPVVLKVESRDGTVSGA

Structure (SMILES) | Inhibitory index
CN1CCC(c2c[nH]c3ccc(NC(=O)c4ccc(F)cc4)cc23)CC1 | 0.8
COCCCOc1ccnc(C[S+]([O-])c2nc3ccccc3[nH]2)c1C (configuration not stated) [RABEPRAZOLE] | 0.82
CC(C)(C)c1cc(CC2SCNC2=O)cc(C(C)(C)C)c1O (configuration not stated) [TAZOFELONE] | 0.39
CN1[C@@H]2CC[C@H]1C[C@@H](NC(=O)c1cc(Cl)cc3c1OC(C)(C)C3)C2 [ZATOSETRON] | 0.8

Further lines, results first:

Inhibitory index | Structure (SMILES)
0.86 | COc1ccccc1CN(CC(Cc1c[nH]c2ccccc12)NC(=O)CN1CCC(N2CCCCC2)CC1)C(C)=O (configuration not stated)
0.88 | O[C@@H](COc1cccc2ncccc12)CN1CCN([C@@H]2c3ccccc3[C@@H]3[C@H](c4ccccc42)C3(F)F)CC1
0.88 | OC(COc1cccc2ncccc12)CN1CCN(C2c3ccccc3C3CC3c3ccccc32)CC1 (configuration not stated)

From ChEMBL document CHEMBL1135043, “A neural network based virtual screening of cytochrome P450 3A4 inhibitors” (Bioorg Med Chem Lett, 2002)
